Experimental data as given in patent publication US8039456B2, “Method of stimulating the motility of the gastrointestinal system using ipamorelin” (Helsinn Therapeutics (U.S.), Inc., priority 2004, dated 2011).
Where two headings read alike, the source gives them in different places. Square brackets hold non-standard residues; d marks the D form. Ends that are not written are not given here. Peptide text beside a SMILES is read from it. d2Nal = N[C@H](Cc1ccc2ccccc2c1)C(=O)O; Aib = CC(C)(N)C(=O)O

How the values were obtained:
Half-life in humans = format: in vivo
[1] = test system: rat model of post-operative ileus; test: Gastric emptying (phenol red) after i.v. injection, ipamorelin compared to RC-1139, rat model of post-operative ileus (Example 5); format: in vivo; settings: 10 mg/kg i.v.; for lethality: n = 2
Protocol: Ipamorelin was evaluated in a rat model of post-operative ileus in comparison to RC-1139, a ghrelin mimetic with known gastrokinetic efficacy. Treatment groups were as follows.
All animals were examined twice daily for mortality and signs of ill health or reaction to treatment (except on the day of arrival and necropsy when the animals were examined once). Individual body weights were measured at randomization and on the day prior to dosing (for dose calculation purposes only).
All treatment procedures were replicated over two consecutive days with approximately equal numbers of animals from each group treated on each day. Food was withdrawn from animals overnight prior to surgery. On the day of surgery animals were anesthetized with isoflurane gas and a bland ophthalmic lubricant was applied to each eye. The animals were prepared for surgery by shaving of the entire abdominal region. The shaved area was cleaned and disinfected appropriately prior to incision. Using a scalpel blade, the abdomen was opened and the cecum localized. The cecum was exteriorized and manipulated for approximately one minute (i.e. gently patted between hands in saline-soaked gauze). Thereafter, the cecum was repositioned and the surgical site closed using absorbable suture material (interrupted sutures) and staples. Animals were then returned to their home cage to permit recovery from the anesthesia.
Animals were dosed immediately following the oral gavage dose of phenol red. The test/control articles and reference article were administered by intravenous injection (given as a slow bolus injection over a period of ca. 100 seconds) into the tail vein using a syringe and appropriate gauge needle. The dose volume was 5 mL/kg and the actual dose administered was based on the most recent body weight of each animal.
Prior to dosing of the phenol red, the animals were water deprived. At approximately 30 minutes post-surgery, animals received 0.4 mL of phenol red by oral gavage, then dosed with the test article, and then, approximately 30 minutes later, were euthanized. […]

[2] = Prior Phase 1 studies, safety and tolerability; format: in vivo, humans; settings: 0.06 mg/kg IV infused over 15 minutes
Protocol: Ipamorelin was formulated as a 0.5 mg/mL sterile solution with 2 equivalents of acetic acid in normal saline. The sterile solution was further diluted with normal saline to an appropriate volume for administration prior to use.

[3] = Johansen et al. 1998; cited from earlier work
[4] = test system: morphine-induced gastric ileus in rats; test: Morphine-induced gastric ileus in rats, phenol red gastric emptying (Example 4); format: in vivo, rat
Protocol: Treatment groups were set up as follows.
The dose volume was 0.1 mL/kg for Groups 2 and 3 and 0.4 mL/kg for Groups 4 and 5. The actual dose administered was based on the most recent practical body weight of each animal.
Approximately 30 minutes following administration of control or test article, the rats were euthanized. The stomach was then exposed by laparotomy, quickly ligated at the pylorus and the cardia and removed. The stomach was cut open and its contents extracted with 100 mL of 0.1N NaOH. The phenol red content of this extract was assayed […] at 558 nm in a spectrophotometer. Following collection, samples were stored on wet ice pending transfer for analysis.

[5] = test system: gastrointestinal motility in rats; test: Gastrointestinal motility in rats by charcoal transit, 0.25 mg/kg i.v. (Example 8); format: in vivo, rat; settings: for reduction of the amount of charcoal remaining in the stomach relative to the control group: 0.25 mg/kg i.v.
Protocol: The objective of this study was to evaluate the pharmacological effects of a series of ghrelin mimetics on gastrointestinal motility in rats, as measured by charcoal transit, relative to a commonly used prokinetic agent, metoclopramide, and control, following a single intravenous infusion of the experimental agent. Each dosing formulation was prepared on the day of dosing. […] The reference article formulations were also prepared on the day of dosing by mixing the appropriate amount of reference article with the appropriate volume of vehicle to achieve the desired final concentration. The saline and metoclopramide (1 mg/mL) were used as supplied. Dosing was performed on consecutive days with approximately equal numbers of animals being dosed on each day. The animals were deprived of food overnight prior to treatment. Each formulation was administered by intravenous injection into the tail vein using a syringe and appropriate gauge needle. The dose volume was 5 mL/kg or 10 mL/kg (in the case of metoclopramide only). […] Following the observation period the rats were euthanized, the abdominal cavity opened, and the stomach and intestines removed. The presence or absence of charcoal was documented. The stomachs were weighed (with or without contents) to give an indication of gastric emptying. The intestines were opened and extended to their full length. The charcoal was located and the distances from the pyloric sphincter to the most proximal and distal traces of charcoal were measured as was the total distance from the pyloric sphincter to the cecum. Also, the distance traveled by the charcoal as a percentage of the total length of the small intestine was measured.

[6] = test system: gastrointestinal motility in rats; test: Gastrointestinal motility in rats by charcoal transit, equimolar i.v. dose (Example 9); format: in vivo, rat; settings: single intravenous dose of 75 μmoles/kg
Text: The objective of this study was to evaluate the pharmacological effects of a series of ghrelin mimetics on gastrointestinal motility in rats, as measured by charcoal transit, relative to control, following a single intravenous infusion of the experimental agent.
Dosing commenced on consecutive days with approximately equal numbers of animals from each group being dosed on each day. The animals were food deprived overnight prior to treatment. Prior to dosing, the animals were water deprived. The test/reference/positive control articles were administered by intravenous injection into the tail vein using a syringe and appropriate gauge needle. […]
At the end of the observation period, the rats were euthanized and the abdominal cavity was opened and the stomach and intestines were removed. […] The stomachs were weighed (with and without contents) and this was recorded to give an indication of gastric emptying. […] The charcoal was located and the distances from the pyloric sphincter to the most proximal and distal traces of charcoal were measured and recorded, as well as the total distance from the pyloric sphincter to the cecum (all distances were measured in mm). In addition to the stomachs weights (with and without contents) the distance traveled by the charcoal as a percentage of the total length of the small intestine was recorded to give an indication of the gastric emptying. […]

[7] = cited from earlier work
[8] = cited from earlier work; remark: listed apart in the source
rat model of POI = test: Rat model of POI (running of the bowel), single dose (Example 10, series 1); format: in vivo
Text: Animals: Adult male Sprague-Dawley rats with indwelling catheters implanted in the right jugular vein were obtained from Charles River (Wilmington, Mass.). The initial body weight of the animals was 250-270 g. The catheters were maintained patent during the acclimation and were used for the dosing of ipamorelin or vehicle. An additional group of control rats, not subjected to surgery and drug or vehicle treatment, were purchased with an indwelling catheter implanted into the proximal colon (1-2 cm from the cecum) used for infusion of a dye marker measuring colonic transit. All rats were single-housed under controlled conditions (25° C., 12 h light/dark cycle) with free access to food and water. An acclimation period of at least one week was allowed prior to the experiments. • Induction of post-operative ileus (POI): POI was induced by a surgical procedure described as “running of the bowel” (Kalff et al., 1998). Specifically, rats were anesthetized with isoflurane (2-3%) inhalation, the abdomen was shaved, disinfected and a midline incision was made to expose the viscera. The small intestine and the cecum were exteriorized and inspected for 5 min using cotton applicators soaked in sterile saline. After completing the inspection, the intestine was covered with gauze soaked in saline and the abdomen remained open for additional 10 min. To study colonic transit, 200 μl of a non-absorbable dye marker (trypan blue in saline) was injected into the proximal colon (1 cm distal to the cecum). The incision was then closed with silk sutures. The whole procedure lasted 25-30 min. Surgeries were always performed at 6:00-8:00 AM and the animals received ipamorelin or vehicle treatment during the light phase of the light/dark cycle. • Measurement of colonic transit time: Prior to the experiments, the rats were fasted for 20-22 h with free access to water. […] Colonic transit time was evaluated as the period between the end of surgery and the appearance of dye in the fecal pellet. […] The cumulative fecal output was evaluated by adding the number of pellets throughout a 48-h post-surgical period. Food intake was recorded at 3-h interval or 12-h intervals according to the experimental design and was normalized as g/100 g body weight. The cumulative food intake was calculated for 48 h post-surgery in both series of experiments. Body weight was measured daily at 8:00-9:00 AM before fasting the animals, on the day of experiment before the surgery and at 24 h and 48 h post-surgery. Changes in body weight are expressed as body weight gain compared to the weight of the fasted animal taken before the surgery. • Test and control articles: The test compound ipamorelin (free base) was converted to the diacetate salt by mixing with 2 molar equivalents of glacial acetic acid. […]

[9] = 50 μg/kg i.v. after 1 mg/kg morphine
[10] = single dose i.v., first 48 h post-surgery

CC(C)(N)C(=O)N[C@@H](Cc1c[nH]cn1)C(=O)N[C@H](Cc1ccc2ccccc2c1)C(=O)N[C@H](Cc1ccccc1)C(=O)N[C@@H](CCCCN)C(N)=O [ipamorelin, α-Methylalanine-L-histidine-D-β-(2-naphthyl)-alanine-D-phenylalanine-L-lysinamide] (H-[Aib]H[d2Nal][dF]K-NH2)
half-life in humans (Half-life in humans): approximately six | half-life (Half-life in humans; human, serum): 180 to 390 min | lethality [1]: Two animals died immediately | lethality ([1]; listed as Ipamorelin): *Lethality was observed immediately following administration of a 10 mg/kg dose (n = 2) and consequently the dose level was reduced to 0.25 mg/kg for all remaining animals in Group 4 | safety and tolerability in prior Phase 1 studies [2]: safe and well-tolerated | half-life in the rat [3]: 30 to 60 min

ghrelin: 28-amino acid peptide that is produced in the stomach; potent prokinetic peptide known to reverse gastric ileus (GSSFLSPEHQRVQQRKESKKPPAKLQPR; ends and bridges not checked; UniProt Q9UBU3 24-51, looked up)
acceleration of stomach emptying compared to animals treated with 1 mg/kg morphine and saline [4, 9]: approximately 37% | reversal of the ileus induced [4, 9]: approximately 11% | gastric emptying in rats administered 4 mg/kg of morphine ([4]; 50 μg/kg i.v. after 4 mg/kg morphine): did not accelerate gastric emptying | group mean absorbance of phenol red ([4]; 50 μg/kg i.v. after 4 mg/kg morphine, saline group 2.99): 3.01 | reduction of the amount of charcoal remaining in the stomach relative to the control group [5]: 57% | intestinal transit, proximal distance traveled by the charcoal from the pyloric sphincter [6]: resulted in gastric emptying by one of the two measures | half-life in humans [7]: approximately 10 minutes | serum half-life ([8]; biologically active (acylated) form, Akamizu et al. 2004): 9 to 13 min

CN(C(=O)/C=C/CC(C)(C)N)[C@H](Cc1ccc(-c2ccccc2)cc1)C(=O)N(C)[C@H](Cc1ccccc1)C(=O)N1CCC(O)CC1 [RC-1139]
stomach content of the phenol red marker lower than that of the control group [1]: approximately 16%

GHRP-6
reduction of the amount of charcoal remaining in the stomach relative to the control group [5]: 64% | intestinal transit, proximal distance traveled by the charcoal from the pyloric sphincter [6]: resulted in gastric emptying by one of the two measures | body weight gain (rat model of POI; [10]): neither ipamorelin nor GHRP-6 had a significant effect | fecal pellet output (rat model of POI; [10]): neither ipamorelin nor GHRP-6 had a significant effect | food intake (rat model of POI; [10]): neither ipamorelin nor GHRP-6 had a significant effect | colonic transit time (rat model of POI; single post-surgical dose of 20 μg i.v.): significantly decreased | serum half life ([8]; Bowers et al. 1992): 20 min

CN1CC[C@]23c4c5ccc(O)c4O[C@H]2[C@@H](O)C=C[C@H]3[C@H]1C5 [morphine]
reduction of stomach emptying compared to the control animals ([4]; 1 or 4 mg/kg subcutaneous): approximately 42%

CCN(CC)CCNC(=O)c1cc(Cl)c(N)cc1OC [metoclopramide]
increase of distal distance traveled by the charcoal meal versus control ([5]; 10 mg/kg i.v.): 29% | stomach charcoal content versus control group ([5]; 10 mg/kg i.v.): not significantly different | distal distance traveled by the charcoal meal ([5]; 10 mg/kg i.v., control group 67.3%): 86.9%
